# Columns and labels:
# Format in all cases: in vivo, human
# [1] = system: atrial fibrillation duration from 3 hours to 45 days; assay: Atrial Arrhythmia Conversion Trial 1, Phase III (Example 6); settings: for median time to conversion: responders
# Protocol: This study was conducted to assess the efficacy and safety of COMPOUND A in the conversion of atrial fibrillation to sinus rhythm in humans. The study was a randomized, double-blind, placebo-controlled Phase III study.
# Patients were randomized in a 2:1 ratio (COMPOUND A:placebo) and stratified by atrial fibrillation duration. The entire group of patients (pts) had atrial fibrillation duration from 3 hours to 45 days. One subgroup had atrial fibrillation duration from 3 hours to 7 days. Another subgroup had atrial fibrillation duration from 8 days to 45 days.
# The primary endpoint of the study was the proportion of patients with atrial fibrillation duration of 3 hours to 7 days who had treatment-induced conversion of atrial fibrillation to sinus rhythm with 90 minutes. Secondary endpoints include the time-to-conversion of atrial fibrillation to sinus rhythm in patients with atrial fibrillation of 3 hours to 7 days and the proportion of patients with termination of atrial fibrillation within 90 minutes in the subgroup of patients with 8 days to 45 days of atrial fibrillation duration and in the entire group of patients with 3 hours to 45 days of atrial fibrillation duration.
# Dosing was as follows: Placebo or 3.0 mg/kg of COMPOUND A was administered by infusion over a 10 minute period, followed by a 15-minute observation period. If atrial fibrillation was not terminated, placebo or 2.0 mg/kg of COMPOUND A was adminstered by infusion over a 10 minute period.
# The patient population was randomized (n=[…]). […] There were 220 patients in the subgroup having 3 hours to 7 days atrial fibrillation. Of these 220 patients, 75 received placebo and 145 received COMPOUND A. There were 116 patients in the subgroup having 8 days to 45 days atrial fibrillation. Of these 116 patients, 40 received placebo and 76 received COMPOUND A.
# [2] = system: atrial fibrillation of 3 hours to 45 days; assay: Conversion of recent onset atrial fibrillation to sinus rhythm (Example 3); settings: for Number of Patients Converted to Sinus Rhythm / Patients (%) Converted to Sinus Rhythm: within 90 minutes
# Protocol: The primary endpoint of this study was the proportion of patients with atrial fibrillation duration of 3 hours to 7 days who had treatment-induced conversion to sinus rhythm within 90 minutes of treatment. Secondary endpoints included the time-to-conversion of atrial fibrillation to sinus rhythm in patients with atrial fibrillation duration of 3 hours to 7 days; the proportion of patients with atrial fibrillation of 8 to 45 days who had treatment-induced conversion to sinus rhythm within 90 minutes of treatment, and the proportion of patients in the entire group with atrial fibrillation of 3 hours to 45 days who had treatment-induced conversion to sinus rhythm within 90 minutes of treatment.
# 336 patients were randomized in a 2:1 ratio of COMPOUND A to placebo (221 patients received COMPOUND A and 115 patients received placebo) and stratified by atrial fibrillation duration of 3 hours to 7 days and 8 to 45 days.
# A first 10-minute infusion of a test compound (placebo or 3 mg/kg of COMPOUND A) was given to each patient. A second 10-minute infusion (placebo or 2 mg/kg of COMPOUND A) was given 15 minutes later if atrial fibrillation was not terminated. Safety was assessed by the incidence of adverse events, vital signs, laboratory data, ECG and holter monitoring.
# [3] = system: atrial fibrillation (AF duration 3 hr-7 days; 8-45 days); assay: Effect of age, gender and prior rate control medications on conversion of AF to SR (Example 4); settings: for Number of Pts Converted to Sinus Rhythm / Pts (%) Converted to Sinus Rhythm: AF Duration 3 hr-7 days
# Protocol: Patients (pts) were block randomized in a double-blind, controlled study in a 2:1 ratio to receive COMPOUND A or placebo, stratified by AF duration (3 hr-7 days; 8-45 days). COMPOUND A (3 mg/kg), or similar appearing placebo, were infused over 10-min, followed by a second infusion if AF was not terminated (2 mg/kg or placebo). The proportion of pts with AF duration 3 hr-7 days who had treatment-induced conversion to SR within 90 min was the primary endpoint. Logistic regression was used to examine the effect of age (<65 vs ≧65), gender, and a prior use of rate control medications (beta blockers, calcium antagonists, digoxin).
# [4] = 30-day follow-up period after dosing, n = 221
# [5] = 24 hour period post-dosing, holter, n = 221
# [6] = 24 hour time period following dosing, n = 221
# [7] = non-responders with attempted cardioversion
# [8] = 30-day interval following administration
# [9] = AF 8-45 days, 3 mg/kg then 2 mg/kg
# [10] = AF 3 hr-7 days, 3 mg/kg then 2 mg/kg
# [11] = 30 days following drug administration
smiles,measurement,setting,value
"COc1ccc(CCO[C@@H]2CCCC[C@H]2N2CC[C@@H](O)C2)cc1OC.Cl [COMPOUND A, (1R,2R)-2-[(3R)-hydroxypyrrolidinyl]-1-(3,4-dimethoxyphenethoxy)cyclohexane monohydrochloride]",serious adverse events: Cardiac disorders (%),[1]; [4],10.0%
same,serious adverse events: Cardiac disorders (number),[1]; [4],22
same,serious adverse events: Infections and infestations (%),[1]; [4],1.4%
same,serious adverse events: Infections and infestations (number),[1]; [4],3
same,serious adverse events: Nervous system disorders (%),[1]; [4],0.0%
same,serious adverse events: Nervous system disorders (number),[1]; [4],0
same,"serious adverse events: Respiratory, thoracic and mediastinal disorders (%)",[1]; [4],1.8%
same,"serious adverse events: Respiratory, thoracic and mediastinal disorders (number)",[1]; [4],4
same,serious adverse events: Total (%),[1]; [4],13.1%
same,serious adverse events: Total (number),[1]; [4],29
same,serious adverse events: Vascular disorders (%),[1]; [4],1.4%
same,serious adverse events: Vascular disorders (number),[1]; [4],3
same,Monomorphic sustained ventricular tachycardia (%),[1]; [5],0.0%
same,Monomorphic sustained ventricular tachycardia (number),[1]; [5],0
same,Monomorphic unsustained aberrant condition (%),[1]; [5],1.4%
same,Monomorphic unsustained aberrant condition (number),[1]; [5],3
same,Monomorphic unsustained ventricular tachycardia (%),[1]; [5],0.9%
same,Monomorphic unsustained ventricular tachycardia (number),[1]; [5],2
same,Polymorphic sustained ventricular tachycardia (%),[1]; [5],0.0%
same,Polymorphic sustained ventricular tachycardia (number),[1]; [5],0
same,Polymorphic unsustained aberrant condition (%),[1]; [5],0.0%
same,Polymorphic unsustained aberrant condition (number),[1]; [5],0
same,Polymorphic unsustained ventricular tachycardia (%),[1]; [5],0.0%
same,Polymorphic unsustained ventricular tachycardia (number),[1]; [5],0
same,Torsades de Pointes (%),[1]; [5],0.0%
same,Torsades de Pointes (number),[1]; [5],0
same,Ventricular Rhythm >=5 beats: Total (%),[1]; [5],2.3%
same,Ventricular Rhythm >=5 beats: Total (number),[1]; [5],5
same,Ventricular escape rhythm (%),[1]; [5],0.0%
same,Ventricular escape rhythm (number),[1]; [5],0
same,treatment-emergent adverse event: Atrial fibrillation (%),[1]; [6],4%
same,treatment-emergent adverse event: Atrial fibrillation (number),[1]; [6],8
same,treatment-emergent adverse event: Cough (%),[1]; [6],5%
same,treatment-emergent adverse event: Cough (number),[1]; [6],11
same,treatment-emergent adverse event: Dysgeusia (%),[1]; [6],30%
same,treatment-emergent adverse event: Dysgeusia (number),[1]; [6],66
same,treatment-emergent adverse event: Hypotension (%),[1]; [6],6%
same,treatment-emergent adverse event: Hypotension (number),[1]; [6],14
same,treatment-emergent adverse event: Nausea (%),[1]; [6],9%
same,treatment-emergent adverse event: Nausea (number),[1]; [6],20
same,treatment-emergent adverse event: Paraesthesia (%),[1]; [6],11%
same,treatment-emergent adverse event: Paraesthesia (number),[1]; [6],24
same,treatment-emergent adverse event: Pruritus (%),[1]; [6],6%
same,treatment-emergent adverse event: Pruritus (number),[1]; [6],13
same,treatment-emergent adverse event: Sneezing (%),[1]; [6],16%
same,treatment-emergent adverse event: Sneezing (number),[1]; [6],36
same,responders converted after the first dosing,[1]; both the short duration subgroup and the entire group,76%
same,responders relapsed into atrial fibrillation in the first 24 hours post-dosing,[1]; in vivo,one
same,Electrical cardioversion was attempted (%),[1]; n = 221,43%
same,Electrical cardioversion was attempted (number),[1]; n = 221,96
same,Successfully converted by electrical cardioversion (%),[1]; [7],85%
same,Successfully converted by electrical cardioversion (number),[1]; [7],82
same,median time to conversion,[1]; entire group (3 hrs-45 days atrial fibrillation),11.5 min
same,median time to conversion,[1]; short duration subgroup (3 hrs-7 days atrial fibrillation),11 min
same,patients with recurrence of atrial fibrillation (serious adverse event),[2]; [8],6%
same,patients with serious adverse events,[2]; [8],13%
same,converted patients relapsed within 24 hrs of administration,[2]; 3 hours to 7 days group converters,one
same,median time to conversion,"[2]; 3 hours to 7 days group, seventy-five converters",eleven
same,Number of Patients Converted to Sinus Rhythm,[2]; [9],6
same,Patients (%) Converted to Sinus Rhythm,[2]; [9],8%
same,Number of Patients Converted to Sinus Rhythm,[2]; [10],75
same,Patients (%) Converted to Sinus Rhythm,[2]; [10],52%
same,Number of Patients Converted to Sinus Rhythm,"[2]; Entire Group, AF 3 hr-45 days",83
same,Patients (%) Converted to Sinus Rhythm,"[2]; Entire Group, AF 3 hr-45 days",38%
same,drug-related Torsades de Pointes,[2]; in vivo,no cases
same,patients with transient alteration in taste,[2]; in vivo,30%
same,median time to conversion,[3]; 3 hr-7 day group (n=75),11 min
same,pts with serious adverse events (%),[3]; [11],13%
same,pts with serious adverse events (number),[3]; [11],29
same,Number of Pts Converted to Sinus Rhythm,[3]; Men,53
same,Pts (%) Converted to Sinus Rhythm,[3]; Men,52%
same,Number of Pts Converted to Sinus Rhythm,[3]; No Prior Rate Control Drugs,19
same,Pts (%) Converted to Sinus Rhythm,[3]; No Prior Rate Control Drugs,53%
same,Number of Pts Converted to Sinus Rhythm,[3]; Prior Rate Control Drugs,56
same,Pts (%) Converted to Sinus Rhythm,[3]; Prior Rate Control Drugs,51%
same,Number of Pts Converted to Sinus Rhythm,[3]; Women,22
same,Pts (%) Converted to Sinus Rhythm,[3]; Women,51%
same,Number of Pts Converted to Sinus Rhythm,[3]; age <65,49
same,Pts (%) Converted to Sinus Rhythm,[3]; age <65,56%
same,Number of Pts Converted to Sinus Rhythm,[3]; age ≧65,26
same,Pts (%) Converted to Sinus Rhythm,[3]; age ≧65,46%
same,drug-related Torsades de Pointes,[3]; in vivo,No cases
same,patients converted to SR,"[3]; primary end-point group, AF 3 hr-7 days, 3 mg/kg then 2 mg/kg, within 90 min",52%
